Like-named read-outs stand apart in the source and are kept apart here.
Legend:
Test in all cases: biochemical
Set-up in all cases: Eurofins DiscoverX kinase panel, competitive binding assay at 1 uM, percent of DMSO control
Conditions in all cases: competitive binding, percent of DMSO control
MAP4K1 = MAP4K1 (Homo sapiens, UniProt Q92918)
Outline: (§1)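 Single-point profiling at 1 µM compound in a competition-binding format against 96 kinases, read out as POC relative to control; n = 1.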

IGF-1R = target: T1, IGF-1R (Homo sapiens, UniProt P08069)
T1 construct: gene IGF1R
Outline: as §1

CLK4 = CLK4 (Homo sapiens, UniProt Q9HAZ1)
Outline: as §1

CDK8 = CDK8 (Homo sapiens, UniProt P49336)
Outline: as §1

Plk 1 = target: T2, Plk 1 (Homo sapiens, UniProt P53350)
T2 construct: gene PLK1
Outline: as §1

EGFR = EGFR (Homo sapiens, UniProt P00533)
Outline: as §1

EPHB3 = target: T3, EPHB3 (Homo sapiens, UniProt P54753)
T3 sequence (P54753 1-998): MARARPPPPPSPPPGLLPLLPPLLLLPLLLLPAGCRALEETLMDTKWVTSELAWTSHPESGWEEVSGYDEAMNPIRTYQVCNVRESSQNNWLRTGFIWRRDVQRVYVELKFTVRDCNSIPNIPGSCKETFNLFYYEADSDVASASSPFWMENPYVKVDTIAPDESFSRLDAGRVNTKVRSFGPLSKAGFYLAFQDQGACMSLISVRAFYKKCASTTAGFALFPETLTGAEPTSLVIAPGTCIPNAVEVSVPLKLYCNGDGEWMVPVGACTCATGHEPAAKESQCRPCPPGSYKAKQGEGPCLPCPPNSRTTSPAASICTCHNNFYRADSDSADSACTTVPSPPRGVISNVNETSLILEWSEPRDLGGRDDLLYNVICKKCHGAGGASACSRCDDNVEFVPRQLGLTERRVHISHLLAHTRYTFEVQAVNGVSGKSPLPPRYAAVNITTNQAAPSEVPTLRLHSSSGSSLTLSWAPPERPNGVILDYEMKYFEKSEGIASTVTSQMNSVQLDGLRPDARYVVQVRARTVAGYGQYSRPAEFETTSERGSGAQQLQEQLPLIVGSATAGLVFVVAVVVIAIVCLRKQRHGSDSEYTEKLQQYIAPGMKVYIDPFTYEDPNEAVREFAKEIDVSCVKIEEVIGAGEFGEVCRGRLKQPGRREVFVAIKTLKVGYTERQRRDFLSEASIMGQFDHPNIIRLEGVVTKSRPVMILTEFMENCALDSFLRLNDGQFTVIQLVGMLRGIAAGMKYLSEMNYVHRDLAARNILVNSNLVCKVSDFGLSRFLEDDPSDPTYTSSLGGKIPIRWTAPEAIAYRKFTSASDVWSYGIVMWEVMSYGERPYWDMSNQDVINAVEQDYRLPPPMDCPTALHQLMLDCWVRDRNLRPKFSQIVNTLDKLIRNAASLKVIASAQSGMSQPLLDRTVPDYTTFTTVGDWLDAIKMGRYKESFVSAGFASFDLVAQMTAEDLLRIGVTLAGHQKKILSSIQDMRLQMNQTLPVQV
Outline: as §1

[1] = read-out: Kinome Profiling performed by Eurofins DiscoverX / AM-1882, 1.0 µM / POC
[2] = read-out: Kinome Profiling performed by Eurofins DiscoverX / AM-0277, 1.0 µM / POC
[3] = read-out: Kinome Profiling performed by Eurofins DiscoverX / AM-5308, 1.0 µM / POC

T2 sequence (P53350 whole entry): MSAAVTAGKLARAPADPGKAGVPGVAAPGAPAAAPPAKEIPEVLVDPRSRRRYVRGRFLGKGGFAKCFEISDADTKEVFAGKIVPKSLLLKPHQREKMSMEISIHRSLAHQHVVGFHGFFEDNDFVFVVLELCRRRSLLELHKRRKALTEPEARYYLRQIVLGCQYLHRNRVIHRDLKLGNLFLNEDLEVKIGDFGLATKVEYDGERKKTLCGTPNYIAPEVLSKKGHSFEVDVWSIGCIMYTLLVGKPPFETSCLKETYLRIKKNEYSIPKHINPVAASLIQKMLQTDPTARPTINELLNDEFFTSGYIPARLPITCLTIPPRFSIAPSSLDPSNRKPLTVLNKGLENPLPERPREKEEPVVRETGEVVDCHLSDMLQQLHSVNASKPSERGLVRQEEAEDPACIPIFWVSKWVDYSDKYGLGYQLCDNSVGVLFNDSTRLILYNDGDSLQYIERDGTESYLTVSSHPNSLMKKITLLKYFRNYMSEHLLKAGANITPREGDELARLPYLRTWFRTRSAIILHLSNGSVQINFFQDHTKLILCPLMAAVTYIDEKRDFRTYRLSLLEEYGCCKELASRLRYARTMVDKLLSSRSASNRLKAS
T1 sequence (P08069 whole entry): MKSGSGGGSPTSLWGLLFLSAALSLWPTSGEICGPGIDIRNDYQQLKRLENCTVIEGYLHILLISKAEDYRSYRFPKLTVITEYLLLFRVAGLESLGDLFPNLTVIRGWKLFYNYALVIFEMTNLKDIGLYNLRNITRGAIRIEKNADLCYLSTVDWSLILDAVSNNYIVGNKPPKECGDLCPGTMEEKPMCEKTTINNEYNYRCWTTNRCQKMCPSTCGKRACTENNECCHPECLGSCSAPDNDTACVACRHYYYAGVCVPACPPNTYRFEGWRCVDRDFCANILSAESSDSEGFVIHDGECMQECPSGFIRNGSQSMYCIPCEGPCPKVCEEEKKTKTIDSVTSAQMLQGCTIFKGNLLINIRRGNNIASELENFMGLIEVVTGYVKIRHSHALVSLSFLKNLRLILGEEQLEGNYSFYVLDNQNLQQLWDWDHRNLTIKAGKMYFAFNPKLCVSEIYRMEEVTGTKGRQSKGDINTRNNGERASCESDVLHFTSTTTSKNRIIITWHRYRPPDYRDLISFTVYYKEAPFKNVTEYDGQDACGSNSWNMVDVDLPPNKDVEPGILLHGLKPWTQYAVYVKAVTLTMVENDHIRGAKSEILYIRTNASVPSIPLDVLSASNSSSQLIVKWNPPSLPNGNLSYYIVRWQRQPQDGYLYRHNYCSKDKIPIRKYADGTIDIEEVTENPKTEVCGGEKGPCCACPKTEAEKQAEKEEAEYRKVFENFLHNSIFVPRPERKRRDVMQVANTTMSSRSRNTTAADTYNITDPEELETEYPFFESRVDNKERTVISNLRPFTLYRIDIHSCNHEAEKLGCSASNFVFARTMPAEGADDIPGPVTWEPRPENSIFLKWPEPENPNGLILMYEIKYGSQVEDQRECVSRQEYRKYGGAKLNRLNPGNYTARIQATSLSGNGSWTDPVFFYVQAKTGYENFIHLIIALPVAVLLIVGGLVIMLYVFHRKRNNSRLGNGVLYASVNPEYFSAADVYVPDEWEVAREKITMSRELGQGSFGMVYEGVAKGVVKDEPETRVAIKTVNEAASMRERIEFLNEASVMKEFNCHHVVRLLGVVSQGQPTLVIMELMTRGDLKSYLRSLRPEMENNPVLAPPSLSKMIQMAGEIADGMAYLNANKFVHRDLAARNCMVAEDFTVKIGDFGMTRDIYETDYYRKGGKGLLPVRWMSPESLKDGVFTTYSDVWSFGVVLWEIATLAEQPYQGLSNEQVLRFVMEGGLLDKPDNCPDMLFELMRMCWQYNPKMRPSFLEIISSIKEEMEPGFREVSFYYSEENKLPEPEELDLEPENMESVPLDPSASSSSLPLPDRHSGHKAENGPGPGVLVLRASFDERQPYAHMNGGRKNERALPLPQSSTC
Chain of MAP4K1 (Q92918 whole entry): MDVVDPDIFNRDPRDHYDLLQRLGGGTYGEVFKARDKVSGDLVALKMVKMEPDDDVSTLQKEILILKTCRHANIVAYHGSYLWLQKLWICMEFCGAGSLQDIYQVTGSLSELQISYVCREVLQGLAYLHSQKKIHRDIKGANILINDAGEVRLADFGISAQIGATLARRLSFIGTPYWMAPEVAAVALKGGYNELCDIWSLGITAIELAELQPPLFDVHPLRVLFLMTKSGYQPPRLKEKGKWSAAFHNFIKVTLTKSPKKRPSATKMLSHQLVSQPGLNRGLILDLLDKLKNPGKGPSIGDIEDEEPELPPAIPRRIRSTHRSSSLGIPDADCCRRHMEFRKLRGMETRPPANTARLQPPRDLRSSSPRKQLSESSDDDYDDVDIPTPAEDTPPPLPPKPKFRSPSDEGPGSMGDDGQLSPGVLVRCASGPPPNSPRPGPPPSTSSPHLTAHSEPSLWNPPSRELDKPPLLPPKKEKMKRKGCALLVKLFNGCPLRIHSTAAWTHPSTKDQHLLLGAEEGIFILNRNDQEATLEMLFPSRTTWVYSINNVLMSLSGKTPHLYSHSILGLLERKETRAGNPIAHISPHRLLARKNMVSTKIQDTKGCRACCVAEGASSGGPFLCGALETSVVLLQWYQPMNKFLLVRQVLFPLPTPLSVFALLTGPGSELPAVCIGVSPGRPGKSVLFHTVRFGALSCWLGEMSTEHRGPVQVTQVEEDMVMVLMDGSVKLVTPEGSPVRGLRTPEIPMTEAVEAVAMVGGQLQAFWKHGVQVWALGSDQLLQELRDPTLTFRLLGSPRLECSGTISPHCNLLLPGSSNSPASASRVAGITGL
Chain of CDK8 (P49336 whole entry): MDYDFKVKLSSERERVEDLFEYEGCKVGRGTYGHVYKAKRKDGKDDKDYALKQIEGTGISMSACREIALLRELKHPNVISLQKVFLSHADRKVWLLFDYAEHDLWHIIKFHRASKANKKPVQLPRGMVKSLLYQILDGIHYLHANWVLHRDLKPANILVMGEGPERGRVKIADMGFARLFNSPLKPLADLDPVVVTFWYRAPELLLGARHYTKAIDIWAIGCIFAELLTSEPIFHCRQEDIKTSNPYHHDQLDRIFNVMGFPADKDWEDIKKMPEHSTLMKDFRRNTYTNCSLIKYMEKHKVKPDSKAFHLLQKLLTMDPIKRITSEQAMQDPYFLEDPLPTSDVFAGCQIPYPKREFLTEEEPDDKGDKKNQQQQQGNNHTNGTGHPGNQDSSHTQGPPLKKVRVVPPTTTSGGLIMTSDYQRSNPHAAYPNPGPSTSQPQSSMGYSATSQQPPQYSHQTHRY
Chain of CLK4 (Q9HAZ1 whole entry): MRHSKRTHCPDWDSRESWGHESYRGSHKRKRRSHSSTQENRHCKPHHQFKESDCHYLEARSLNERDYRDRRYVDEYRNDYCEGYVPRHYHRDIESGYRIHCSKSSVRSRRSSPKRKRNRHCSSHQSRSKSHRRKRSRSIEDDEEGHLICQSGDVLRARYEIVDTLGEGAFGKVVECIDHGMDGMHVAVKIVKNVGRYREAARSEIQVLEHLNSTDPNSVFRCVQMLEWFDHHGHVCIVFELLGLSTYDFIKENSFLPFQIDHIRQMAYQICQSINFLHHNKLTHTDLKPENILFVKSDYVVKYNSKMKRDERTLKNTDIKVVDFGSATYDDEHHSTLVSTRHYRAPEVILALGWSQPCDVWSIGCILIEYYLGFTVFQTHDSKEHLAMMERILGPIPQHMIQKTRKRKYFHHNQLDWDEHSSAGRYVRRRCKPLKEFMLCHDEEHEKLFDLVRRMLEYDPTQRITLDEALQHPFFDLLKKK
Chain of EGFR (P00533 whole entry): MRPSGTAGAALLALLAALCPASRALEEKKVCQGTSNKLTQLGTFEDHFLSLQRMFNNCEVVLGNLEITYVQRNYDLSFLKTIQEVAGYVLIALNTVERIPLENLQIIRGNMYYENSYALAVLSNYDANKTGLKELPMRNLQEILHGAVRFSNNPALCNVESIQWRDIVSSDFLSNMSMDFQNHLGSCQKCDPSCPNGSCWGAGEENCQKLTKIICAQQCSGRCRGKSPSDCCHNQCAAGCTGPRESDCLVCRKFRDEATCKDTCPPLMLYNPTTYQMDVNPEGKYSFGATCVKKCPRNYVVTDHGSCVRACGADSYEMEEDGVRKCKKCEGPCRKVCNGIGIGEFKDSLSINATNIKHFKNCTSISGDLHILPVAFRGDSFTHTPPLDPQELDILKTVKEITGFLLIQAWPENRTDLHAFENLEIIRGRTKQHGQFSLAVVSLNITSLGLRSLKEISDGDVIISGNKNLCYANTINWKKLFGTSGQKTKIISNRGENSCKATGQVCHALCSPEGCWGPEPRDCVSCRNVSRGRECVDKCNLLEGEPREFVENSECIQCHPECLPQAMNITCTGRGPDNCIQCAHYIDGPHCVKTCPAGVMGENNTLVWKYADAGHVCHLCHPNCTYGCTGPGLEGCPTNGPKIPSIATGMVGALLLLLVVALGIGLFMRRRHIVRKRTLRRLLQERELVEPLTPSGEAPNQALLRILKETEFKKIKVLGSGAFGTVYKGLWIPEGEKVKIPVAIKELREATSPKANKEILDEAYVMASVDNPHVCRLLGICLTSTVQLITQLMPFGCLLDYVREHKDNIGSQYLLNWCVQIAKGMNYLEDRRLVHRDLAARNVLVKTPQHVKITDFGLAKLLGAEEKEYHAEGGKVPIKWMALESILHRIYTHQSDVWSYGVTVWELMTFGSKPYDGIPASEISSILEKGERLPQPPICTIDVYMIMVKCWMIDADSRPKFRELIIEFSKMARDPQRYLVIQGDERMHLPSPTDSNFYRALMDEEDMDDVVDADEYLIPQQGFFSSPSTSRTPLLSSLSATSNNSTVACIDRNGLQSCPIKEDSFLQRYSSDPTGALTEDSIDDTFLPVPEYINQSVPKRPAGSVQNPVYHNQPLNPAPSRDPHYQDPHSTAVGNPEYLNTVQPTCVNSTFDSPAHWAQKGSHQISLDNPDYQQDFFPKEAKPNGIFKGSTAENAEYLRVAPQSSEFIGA

Which results are given for `CC(C)(C)NS(=O)(=O)c1cccc(NC(=O)c2ccc(S(=O)(=O)NC(C)(C)C)cc2N2CCC3(CC2)CC3)c1` [AM-1882]?
remaining activity at 1 µM (MAP4K1; [1]): 90%; remaining activity at 1 µM (IGF-1R; [1]): 83%; remaining activity at 1 µM (CLK4; [1]): 100%; remaining activity at 1 µM (CDK8; [1]): 34.5%; remaining activity at 1 µM (Plk 1; [1]): 100%; remaining activity at 1 µM (EGFR; [1]): 100%; remaining activity at 1 µM (EPHB3; [1]): 98%

`CC(C)(CO)Nc1ccc(C(=O)Nc2cccc(S(=O)(=O)C3CCCC3)c2)c(N2CCC3(CC2)CC3)n1` [AM-0277] was tested. Which remaining activity at 1 µM (MAP4K1; [2]) did it give?
Its remaining activity at 1 µM is 88%.

What about the remaining activity at 1 µM (IGF-1R; [2]) of the same compound?
The remaining activity at 1 µM was 97%.

And the remaining activity at 1 µM (CLK4; [2])?
The remaining activity at 1 µM was 97%.

What about the remaining activity at 1 µM (CDK8; [2]) of the same compound?
The remaining activity at 1 µM was 70%.

And the remaining activity at 1 µM (Plk 1; [2])?
Its remaining activity at 1 µM is 100%.

And the remaining activity at 1 µM (EGFR; [2])?
The remaining activity at 1 µM was 93%.

What about the remaining activity at 1 µM (EPHB3; [2]) of the same compound?
The remaining activity at 1 µM was 87%.

`C[C@@H]1CN(c2cccc(NC(=O)c3ccc(NS(=O)(=O)CCO)cc3N3CCC4(CC3)CC4)n2)CCO1` [AM-5308] was tested. Which remaining activity at 1 µM (MAP4K1; [3]) did it give?
Its remaining activity at 1 µM is 98.5%.

And the remaining activity at 1 µM (IGF-1R; [3])?
Its remaining activity at 1 µM is 86.5%.

And the remaining activity at 1 µM (CLK4; [3])?
The remaining activity at 1 µM was 100%.

What about the remaining activity at 1 µM (CDK8; [3]) of the same compound?
The remaining activity at 1 µM was 87%.

What about the remaining activity at 1 µM (Plk 1; [3]) of the same compound?
The remaining activity at 1 µM was 95%.

And the remaining activity at 1 µM (EGFR; [3])?
The remaining activity at 1 µM was 83%.

And the remaining activity at 1 µM (EPHB3; [3])?
The remaining activity at 1 µM was 44%.

From paper PMC10824666 (Nature Cancer, 2023)
